Laboratory results published in patent publication US12728124B2, “Medical use of cystic fibrosis transmembrane conductance regulator (CFTR) modulators” (priority 2020, dated 2026).

Key:
[1] = tested on: human pulmonary microvascular endothelial cells (HPMECs); type: cell-based; settings: pretreated 24 hours with 10 μmol/L Ivacaftor or 5 μmol/L Lumacaftor, then 0.25 μg/ml pneumolysin; vs pneumolysin alone
[2] = tested on: human pulmonary microvascular endothelial cells (HPMECs); assay: Endothelial calcium concentration (fura-2 340/380 ratio) in HPMECs stimulated with pneumolysin; type: cell-based; settings: 10 μmol/L Ivacaftor for 30 min, then PLY 0.25 μg/ml for 30 min
Method: Permeability of endothelial cells has been additionally assessed by measuring the endothelial calcium concentration as follows: Increases in the endothelial calcium concentration represent a key mechanism that underlies the increase endothelial cell permeability. Increased endothelial calcium leads to contraction of the cells and increase gap formation between endothelial cells that lead to increased permeability. In this measurement, HPMECs were cultured in channel slides to confluence. The confluent cells were incubated for 30 min with Hanks Balanced Salt Solution containing 5% fetal bovine serum (FBS) and 10 μmol/L of the calcium sensitive dye fura-2-acetoxymethyl ester (fura-2AM) dissolved in Pluronic F-127 (20% solution in DMSO). The cells were then mounted in a heated chamber at 37° C. and perfused with Hank's salt solution containing 5% FBS with 10 μmol/L Ivacaftor (Cayman chemical) for 30 min followed by PLY (0.25 μg/ml) stimulation for 30 min. Fura-2 fluorescence was excited by monochromatic illumination at wavelength 340 and 380 nm. After background correction, the 340/380 ratio was calculated using TillVision 4.0 software (Till Photonics Germany) as a measure of endothelial calcium concentration. As positive or negative controls, cells were stimulated with only pneumolysin or non-treated cells were used, respectively.

CFTR [3] = target: T1, CFTR (Homo sapiens, UniProt P13569); assay: CFTR expression by Western blotting in HPMECs stimulated with pneumolysin; type: cell-based; settings: pretreated 10 μmol/L Ivacaftor 24 hours, then 0.25 μg/ml PLY for 18 h; Western blot
Method: CFTR expression in endothelial cells was assessed by Western blotting. HPMECs were grown in 6 well plates to confluence. The confluent cells were pretreated with 10 μmol/L Ivacaftor (Cayman chemical) for 24 hours and the next day were stimulated with 0.25 μg/ml PLY for 18 h. Cells were lysed in RIPA buffer and protein concentration was measured by BCA assay and samples were stored at −80° C. or immediately analysed by western blot. Western blots were performed using 7.5% gel. After gel transfer, the blot membrane was incubated for 1 h in 5% milk diluted in tris buffer saline with tween 0.1% (TBS-T) followed by incubation for 24 h with CFTR antibody as the primary antibody diluted 1:500 in TBS-T. The next day, the membrane was incubated for 2 h in donkey anti rabbit as the secondary antibody diluted 1:10000 in TBS-T.

[4] = tested on: S. pneumoniae infected mice; assay: S. pneumoniae infected mice, Ivacaftor pre-treatment: lung protein leakage, survival, BALF immune cells; type: in vivo, mouse
CFTR [5] = target: T2, CFTR (Mus musculus, UniProt P26361); assay: CFTR expression by Western blotting in lungs of S. pneumoniae infected mice; type: in vivo; settings: Ivacaftor 2 mg/kg i.p. pre-treatment; Western blot
T2 construct: Ivacaftor pre-treatment stabilized the expression of CFTR in lungs of mice infected with S. pneumoniae; from tissue; host or cells: mouse lung tissue (mice from Charles River, Germany)

[6] = tested on: S. pneumoniae infected mice; assay: S. pneumoniae infected mice, Ivacaftor post-treatment: lung protein leakage; type: in vivo, mouse; settings: Ivacaftor 2 mg/kg i.p. post-treatment from 6 hours post-infection
[7] = tested on: human pulmonary microvascular endothelial cells (HPMECs); assay: Transendothelial electrical resistance (ECIS) of HPMECs stimulated with plasma from patients with severe COVID-19; type: cell-based; settings: pretreated 24 hours with 10 μmol/L Ivacaftor or 5 μmol/L Lumacaftor, then 10% (v/v) severe COVID-19 plasma for 24 h
CFTR [8] = target: T1, CFTR; assay: CFTR expression by Western blotting in HPMECs stimulated with plasma from patients with severe COVID-19; type: cell-based; settings: pretreated 10 μmol/L Ivacaftor 24 hours, then 20% (v/v) severe COVID-19 plasma for 24 h; Western blot, densitometry
Method: CFTR expression in endothelial cells was assessed by Western blotting. HPMECs were grown in 6 well plates to confluence. The confluent cells were pretreated with 10 μmol/L Ivacaftor (Cayman chemical) for 24 hours and the next day were stimulated with the above described plasma from COVID-19 patients or healthy donors for 24 h. As positive control, cells were stimulated with the plasma from COVID-19 patients alone (in the absence of CFTR modulators). Plasma samples were diluted to 20% (v/v) for CFTR immunoblotting.
Cells were lysed in RIPA buffer and protein concentration was measured by BCA assay and samples were stored at −80° C. or immediately analysed by Western blot. Western blots were performed using 7.5% gel. After gel transfer, the blot membrane was incubated for 1 h in 5% milk diluted in tris buffer saline with tween 0.1% (TBS-T) followed by incubation for 24 h with CFTR antibody as the primary antibody diluted 1:500 in TBS-T. The next day, the membrane was incubated for 2 h in donkey anti rabbit as the secondary antibody diluted 1:10000 in TBS-T.

[9] = Ivacaftor 2 mg/kg i.p. pre-treatment, S. pneumoniae infected mice, 48 h p.i., FACS

T1 sequence (P13569 whole entry, looked up): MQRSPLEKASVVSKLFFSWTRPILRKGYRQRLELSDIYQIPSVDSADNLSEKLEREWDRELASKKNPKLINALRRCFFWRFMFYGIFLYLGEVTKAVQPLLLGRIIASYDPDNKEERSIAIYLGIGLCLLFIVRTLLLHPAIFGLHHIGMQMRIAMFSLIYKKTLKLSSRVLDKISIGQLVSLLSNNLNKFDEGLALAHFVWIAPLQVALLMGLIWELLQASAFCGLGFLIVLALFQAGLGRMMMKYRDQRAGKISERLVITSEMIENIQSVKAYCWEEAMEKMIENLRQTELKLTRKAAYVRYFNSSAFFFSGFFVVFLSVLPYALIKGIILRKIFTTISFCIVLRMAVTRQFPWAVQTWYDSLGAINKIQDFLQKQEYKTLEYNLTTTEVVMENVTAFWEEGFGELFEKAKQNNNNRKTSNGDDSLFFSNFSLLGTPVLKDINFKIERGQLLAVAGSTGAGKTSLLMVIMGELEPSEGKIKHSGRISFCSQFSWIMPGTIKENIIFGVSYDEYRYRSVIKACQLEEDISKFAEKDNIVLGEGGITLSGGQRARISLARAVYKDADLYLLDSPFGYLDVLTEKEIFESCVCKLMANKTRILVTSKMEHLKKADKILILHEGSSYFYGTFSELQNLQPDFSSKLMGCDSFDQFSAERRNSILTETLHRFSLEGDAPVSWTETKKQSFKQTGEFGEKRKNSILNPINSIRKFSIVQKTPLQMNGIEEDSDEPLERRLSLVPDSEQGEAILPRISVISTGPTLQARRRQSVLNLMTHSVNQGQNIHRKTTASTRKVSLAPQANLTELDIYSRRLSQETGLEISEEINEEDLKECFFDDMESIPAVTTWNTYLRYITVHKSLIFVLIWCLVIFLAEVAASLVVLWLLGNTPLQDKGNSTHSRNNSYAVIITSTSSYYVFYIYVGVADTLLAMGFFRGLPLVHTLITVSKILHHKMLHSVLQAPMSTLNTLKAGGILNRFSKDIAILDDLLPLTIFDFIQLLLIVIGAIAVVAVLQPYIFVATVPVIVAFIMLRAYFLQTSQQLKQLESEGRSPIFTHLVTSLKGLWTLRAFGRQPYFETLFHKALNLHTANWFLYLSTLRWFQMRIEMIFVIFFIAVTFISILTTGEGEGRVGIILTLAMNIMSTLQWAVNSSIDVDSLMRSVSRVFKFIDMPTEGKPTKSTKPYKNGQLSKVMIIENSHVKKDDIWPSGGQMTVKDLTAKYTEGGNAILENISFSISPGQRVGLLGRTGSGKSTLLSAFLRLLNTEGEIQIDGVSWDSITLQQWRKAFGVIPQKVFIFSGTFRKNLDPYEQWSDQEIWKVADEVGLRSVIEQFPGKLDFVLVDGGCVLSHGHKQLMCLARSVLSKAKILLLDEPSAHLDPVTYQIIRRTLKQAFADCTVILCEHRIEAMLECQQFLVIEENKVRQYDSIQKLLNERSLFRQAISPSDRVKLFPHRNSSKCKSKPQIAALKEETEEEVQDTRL
T2 sequence (P26361 whole entry): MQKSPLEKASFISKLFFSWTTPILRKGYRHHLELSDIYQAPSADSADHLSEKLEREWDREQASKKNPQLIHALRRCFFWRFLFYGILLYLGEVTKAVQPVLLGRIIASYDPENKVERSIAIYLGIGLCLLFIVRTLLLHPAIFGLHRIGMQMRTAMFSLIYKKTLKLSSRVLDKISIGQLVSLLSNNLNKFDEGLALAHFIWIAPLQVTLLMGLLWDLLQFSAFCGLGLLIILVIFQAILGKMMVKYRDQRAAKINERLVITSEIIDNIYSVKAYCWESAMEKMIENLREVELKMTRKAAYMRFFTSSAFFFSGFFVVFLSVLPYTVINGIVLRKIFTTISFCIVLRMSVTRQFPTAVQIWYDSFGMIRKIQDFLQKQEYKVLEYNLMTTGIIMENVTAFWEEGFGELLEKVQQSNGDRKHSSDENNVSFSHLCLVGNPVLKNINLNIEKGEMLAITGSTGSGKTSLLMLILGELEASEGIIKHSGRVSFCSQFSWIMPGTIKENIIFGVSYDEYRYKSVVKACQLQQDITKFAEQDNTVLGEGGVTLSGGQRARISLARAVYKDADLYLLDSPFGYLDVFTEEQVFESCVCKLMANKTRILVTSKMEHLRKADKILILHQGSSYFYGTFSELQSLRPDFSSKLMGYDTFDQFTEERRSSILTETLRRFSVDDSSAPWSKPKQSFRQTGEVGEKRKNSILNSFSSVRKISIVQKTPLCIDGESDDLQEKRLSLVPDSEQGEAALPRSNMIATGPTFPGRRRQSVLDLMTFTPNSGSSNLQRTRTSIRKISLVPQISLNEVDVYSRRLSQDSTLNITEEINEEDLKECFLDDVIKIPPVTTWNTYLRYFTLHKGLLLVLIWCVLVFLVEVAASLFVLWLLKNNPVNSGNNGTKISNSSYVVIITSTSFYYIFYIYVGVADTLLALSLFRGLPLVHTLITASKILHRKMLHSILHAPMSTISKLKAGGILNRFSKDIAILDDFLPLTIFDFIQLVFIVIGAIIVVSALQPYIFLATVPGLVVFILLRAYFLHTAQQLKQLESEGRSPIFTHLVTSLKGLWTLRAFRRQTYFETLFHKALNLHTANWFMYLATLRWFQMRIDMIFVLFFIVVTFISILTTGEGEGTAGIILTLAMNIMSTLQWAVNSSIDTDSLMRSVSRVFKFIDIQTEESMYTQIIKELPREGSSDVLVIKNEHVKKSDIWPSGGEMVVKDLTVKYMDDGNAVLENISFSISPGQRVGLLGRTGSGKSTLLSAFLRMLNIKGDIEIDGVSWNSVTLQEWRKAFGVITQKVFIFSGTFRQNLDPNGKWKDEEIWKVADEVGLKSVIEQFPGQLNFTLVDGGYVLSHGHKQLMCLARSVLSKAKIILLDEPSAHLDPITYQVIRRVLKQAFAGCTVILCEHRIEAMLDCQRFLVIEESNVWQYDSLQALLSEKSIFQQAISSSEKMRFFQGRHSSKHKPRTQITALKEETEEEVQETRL

| SMILES | transendothelial electrical resistance of HPMEC monolayer after pneumolysin stimulation [1] | endothelial calcium concentration ([Ca2+]i) after pneumolysin stimulation [2] | CFTR expression in HPMECs after pneumolysin stimulation (CFTR [3]) | survival rate in S. pneumoniae infected mice ([4]; Ivacaftor 2 mg/kg i.p. pre-treatment) | endogenous mouse serum albumin BALF/plasma ratio (protein leakage into the lung) ([4]; Ivacaftor 2 mg/kg i.p. pre-treatment from 24 h before infection, 48 h post infection with S. pneumoniae) | exogenous human serum albumin (HSA) BALF/plasma ratio (protein leakage into the lung) ([4]; Ivacaftor 2 mg/kg i.p. pre-treatment from 24 h before infection, HSA i.v. 1 h before BAL, 48 h post infection) | inflammatory macrophages in BALF [4, 9] | leukocytes in BALF [4, 9] | polymorphonuclear leukocytes (PMN) in BALF [4, 9] | CFTR expression in lungs of S. pneumoniae infected mice (CFTR [5]) | endogenous mouse serum albumin BALF/plasma ratio (protein leakage into the lung) ([6]; 48 h post infection with S. pneumoniae) | exogenous human serum albumin (HSA) BALF/plasma ratio (protein leakage into the lung) ([6]; HSA i.v. 1 h before BAL, 48 h post infection) | transendothelial electrical resistance of HPMECs after stimulation with plasma from COVID-19 patients [7] | CFTR expression in HPMECs after stimulation with plasma from COVID-19 patients (CFTR [8]) |
| --- | --- | --- | --- | --- | --- | --- | --- | --- | --- | --- | --- | --- | --- | --- |
| CC(C)(C)c1cc(C(C)(C)C)c(NC(=O)c2c[nH]c3ccccc3c2=O)cc1O [Ivacaftor, N-(5-hydroxy-2,4-ditert-butyl-phenyl)-4-oxo-1H-quinoline-3-carboxamide] | less reduced resistance | lesser increase | CFTR expression comparable to control cells | increased survival rate | reduced protein leakage into the lung | reduced protein leakage into the lung | decreased the levels of all three inflammatory cell subsets in the BALF | decreased the levels of all three inflammatory cell subsets in the BALF | decreased the levels of all three inflammatory cell subsets in the BALF | stabilized expression of CFTR | reduced protein leakage into the lung | reduced protein leakage into the lung | less reduced transendothelial electrical resistance | CFTR expression comparable to control cells |
| Cc1ccc(NC(=O)C2(c3ccc4c(c3)OC(F)(F)O4)CC2)nc1-c1cccc(C(=O)O)c1 [Lumacaftor, 3-[6-({[1-(2,2-difluoro-1,3-benzodioxol-5-yl)cyclopropyl]carbonyl}amino)-3-methylpyridin-2-yl]benzoic acid] | less reduced resistance | – | – | – | – | – | – | – | – | – | – | – | less reduced transendothelial electrical resistance | – |
